In PubChem BioAssay (NCI):
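Compound exposure: 48 hours, 5 concentrations, 96-well plates. Here, GI50 denotes the concentration required for 50% inhibition of growth. TGI marks complete inhibition of growth.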

Key:
Test in all cases: NCI anticancer screen, dose series, 48 h
[1] = system: NCI-H226 lung
[2] = system: NCI-H23 lung
[3] = system: SK-OV-3 ovarian
[4] = system: SK-MEL-28 melanoma
[5] = system: SNB-19 CNS
[6] = system: SF-539 CNS
[7] = system: SNB-75 CNS
[8] = system: HCC-2998 colon
[9] = system: OVCAR-5 ovarian
[10] = system: MALME-3M melanoma

SMILES	GI50 [1]	TGI [1]	GI50 [2]	TGI [2]	GI50 [3]	TGI [3]	GI50 [4]	TGI [4]	GI50 [5]	TGI [5]	GI50 [6]	TGI [6]	GI50 [7]	TGI [7]	GI50 [8]	TGI [8]	GI50 [9]	TGI [9]	GI50 [10]	TGI [10]
COc1ccc(C(=O)c2nc3ccccc3n2CC(=O)c2ccc(Cl)cc2)cc1	> 28.4 µM	> 100 µM	4.61 µM	> 100 µM	10.4 µM	> 100 µM	3.02 µM	> 100 µM	4.32 µM	> 100 µM	2.85 µM	> 30.5 µM	2.75 µM	> 100 µM	3.94 µM	> 100 µM	> 82.3 µM	> 100 µM	1.92 µM	> 100 µM
CCCCCCCCCCCC1CC(=O)NCCCN(C)CCCCN(C)CCCN1C (stereo not drawn)		3.43 µM		3.12 µM		3.2 µM		3.09 µM		3.1 µM		3.17 µM		2.99 µM		3.21 µM		3.3 µM		3.33 µM
CC(C)[O-].CC(C)[O-].O=c1cccccc1[O-].O=c1cccccc1[O-].[Ti+4]		> 100 µM		> 100 µM		> 100 µM		> 100 µM		> 100 µM	29.3 µM	> 100 µM		> 100 µM		> 100 µM		> 100 µM		70.2 µM
CC(C)(C)NCC(COc1ccc([N+](=O)[O-])cc1)OP(c1ccccc1)c1ccccc1 (stereo not drawn)		94.7 µM		> 100 µM		> 100 µM		> 100 µM		> 100 µM		> 100 µM		> 100 µM		> 100 µM		> 100 µM		67 µM
Cc1ccc2oc(=O)c(-c3ccccc3)nc2c1		> 100 µM		90.7 µM				> 100 µM		> 100 µM		50.5 µM		> 100 µM		41.9 µM		99.8 µM		66.1 µM
O=C(/C=C/c1cccc(O)c1)c1cccc(-n2cc(-c3ccc4ccccc4c3)[nH]c2=O)c1	2.43 µM	8.91 µM	1.52 µM	3.58 µM	2.15 µM	6.73 µM	3.79 µM	12.4 µM	1.32 µM	4.13 µM	1.55 µM	2.89 µM	1.88 µM	5.93 µM	2.13 µM	5.11 µM	1.89 µM	3.6 µM	2.08 µM	6.37 µM
COc1ccc2[nH]c(-c3ccc(O)cc3)cc(=O)c2c1		4.81 µM		6.38 µM		7.49 µM		> 100 µM		> 100 µM		4.32 µM		1.7 µM		3.4 µM		> 82.8 µM		> 29.1 µM
COc1ccc(-c2c(C3=NCCCN3)nnn2-c2ccc([N+](=O)[O-])cc2)cc1		> 100 µM		> 100 µM		> 100 µM		> 100 µM		> 100 µM		> 100 µM		> 100 µM		> 100 µM		> 100 µM		> 100 µM
CN1c2ccccc2SC2C(c3ccccc3)=NOC21 (stereo not drawn)		> 100 µM		71.7 µM		> 100 µM		> 100 µM		> 100 µM		> 100 µM		56.6 µM		> 100 µM		> 100 µM		86.5 µM
CC(C)[O-].CC(C)[O-].CN(CCN(C)Cc1cc(F)cc(F)c1[O-])Cc1cc(F)cc(F)c1[O-].[Ti+4]	2.14 µM	10.5 µM	0.706 µM	2.72 µM	0.634 µM	9.09 µM	0.692 µM	2.17 µM	0.909 µM	8.15 µM	1.01 µM	4.8 µM	0.517 µM	2.52 µM	2.22 µM	7.52 µM	1.51 µM	8.78 µM	0.379 µM	1.43 µM
CC(=Nc1ccc(S(N)(=O)=O)cc1)c1c(O)[nH]c2ccccc12	> 23.6 µM	> 25 µM	> 25 µM	> 25 µM	> 12.2 µM	> 25 µM	> 25 µM	> 25 µM	> 25 µM	> 25 µM	> 25 µM	> 25 µM	> 25 µM	> 25 µM	> 25 µM	> 25 µM	> 25 µM	> 25 µM	> 25 µM	> 25 µM
[2H]c1nc(=Nc2cc(NC(=O)C=C)c(N(C)CCN(C)C)cc2OC)[nH]c(-c2cn(C([2H])([2H])[2H])c3ccccc23)c1[2H]	2.45 µM	26 µM	3.14 µM	15.5 µM			1.78 µM	3.33 µM	1.4 µM	3.05 µM	1.47 µM	2.96 µM	10.8 µM	24.8 µM	1.44 µM	2.8 µM	1.04 µM	2.93 µM	1.94 µM	3.66 µM
CCOC(OC1=C(C#N)CCCC1)C(CC)[Se]c1ccccc1 (stereo not drawn)		49.6 µM		31.5 µM		> 100 µM		61.8 µM		> 100 µM		31.7 µM		80.7 µM		> 100 µM		86.4 µM		> 100 µM
Cc1ccccc1/C=C/C(=O)c1ccccc1		36.7 µM		32.2 µM		67.3 µM		33.9 µM		30.3 µM		28.7 µM		34.6 µM		34.5 µM		30.9 µM		35 µM
COc1ccc(Nc2nccc(N3CCN(c4c5ccc(Cl)cc5nc5ccc(OC)cc45)CC3)n2)cc1	29.7 µM	> 100 µM	22.7 µM	> 100 µM	53.1 µM	> 100 µM	39.5 µM	> 100 µM	18.5 µM	> 100 µM	22.7 µM	> 100 µM	5.61 µM	46.7 µM	23.5 µM	> 100 µM	> 100 µM	> 100 µM	92 µM	> 100 µM
O=C1/C(=C/c2ccc([N+](=O)[O-])cc2)COc2ccc(O)cc21	15.3 µM	72.4 µM	7.83 µM	36.3 µM	> 100 µM	> 100 µM	5.11 µM	22.9 µM	4.29 µM	30.8 µM	4.42 µM	18.3 µM	> 100 µM	> 100 µM	1.74 µM	3.21 µM	5.97 µM	33.2 µM	13.9 µM	75.2 µM
